Data taken from PubChem BioAssay AID248 (DTP/NCI, 2004).
Several values for one entry are separate records, joined by “and”; a condition that tells them apart may be missing. Equal values may be shown once. Toxic doses and inconclusive results are not listed. Cut-off read from the data, not from the text of the source: active = T/C of 150% or more; inactive = T/C below 125%.

Tested on: L1210 leukemia ip in BDF1 mice, survival T/C
Assay: NCI In Vivo Anticancer Drug Screen. Data for tumor model L1210 Leukemia (intraperitoneal) in B6D2F1 (BDF1) mice
Settings: endpoint: mean survival time, higher = longer survival
Summary of the method: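 Each compound was tested against a transplantable tumor grown in mice. The endpoint was survival, with treated animals benchmarked against vehicle controls as a simple ratio.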

[1] = dose: 100.0 mg/kg/injection, schedule: Q04DX003 (ip), vehicle: Klucel (hydroxypropylcellulose) (HPC)
[2] = dose: 200.0 mg/kg/injection, schedule: Q04DX003 (ip), vehicle: Klucel (hydroxypropylcellulose) (HPC)
[3] = dose: 400.0 mg/kg/injection, schedule: Q04DX003 (ip), vehicle: Klucel (hydroxypropylcellulose) (HPC)
[4] = dose: 50.0 mg/kg/injection, schedule: Q01DX009 (ip), vehicle: saline with Tween-80
[5] = dose: 100.0 mg/kg/injection, schedule: Q01DX009 (ip), vehicle: saline with Tween-80
[6] = dose: 100.0 mg/kg/injection, schedule: Q01DX009 (ip), vehicle: Klucel (hydroxypropylcellulose) (HPC)
[7] = dose: 200.0 mg/kg/injection, schedule: Q01DX009 (ip), vehicle: Klucel (hydroxypropylcellulose) (HPC)
[8] = dose: 400.0 mg/kg/injection, schedule: Q01DX009 (ip), vehicle: Klucel (hydroxypropylcellulose) (HPC)
[9] = dose: 50.0 mg/kg/injection, schedule: Q01DX001 (ip), vehicle: carboxymethylcellulose (CMC)
[10] = dose: 100.0 mg/kg/injection, schedule: Q01DX001 (ip), vehicle: carboxymethylcellulose (CMC)
[11] = dose: 200.0 mg/kg/injection, schedule: Q01DX001 (ip), vehicle: carboxymethylcellulose (CMC)
[12] = dose: 100.0 mg/kg/injection, schedule: Q01DX001 (ip), vehicle: saline with Tween-80
[13] = dose: 75.0 mg/kg/injection, schedule: Q01DX001 (ip), vehicle: carboxymethylcellulose (CMC)
[14] = dose: 6.25 mg/kg/injection, schedule: Q01DX009 (ip), vehicle: saline
[15] = dose: 12.5 mg/kg/injection, schedule: Q01DX009 (ip), vehicle: saline
[16] = dose: 25.0 mg/kg/injection, schedule: Q01DX009 (ip), vehicle: saline
[17] = dose: 100.0 mg/kg/injection, schedule: Q04DX003 (ip), vehicle: saline with Tween-80
[18] = dose: 25.0 mg/kg/injection, schedule: Q04DX003 (ip), vehicle: saline with Tween-80
[19] = dose: 50.0 mg/kg/injection, schedule: Q04DX003 (ip), vehicle: saline with Tween-80
[20] = dose: 100.0 mg/kg/injection, schedule: Q01DX009 (ip), vehicle: saline
[21] = dose: 100.0 mg/kg/injection, schedule: Q04DX003 (ip), vehicle: saline
[22] = dose: 200.0 mg/kg/injection, schedule: Q01DX009 (ip), vehicle: saline
[23] = dose: 200.0 mg/kg/injection, schedule: Q04DX003 (ip), vehicle: saline
[24] = dose: 400.0 mg/kg/injection, schedule: Q01DX009 (ip), vehicle: saline
[25] = dose: 400.0 mg/kg/injection, schedule: Q04DX003 (ip), vehicle: saline

Measured: T/C

O=NN(CCCC(=O)O)C(=O)NCCCC(=O)O
inactive: dose: 25.0 mg/kg/injection, schedule: Q01DX Z (ip), vehicle: carboxymethylcellulose (CMC) 103 % of control | dose: 50.0 mg/kg/injection, schedule: Q01DX Z (ip), vehicle: carboxymethylcellulose (CMC) 90 % of control | dose: 100.0 mg/kg/injection, schedule: Q01DX Z (ip), vehicle: carboxymethylcellulose (CMC) 100 % of control | dose: 200.0 mg/kg/injection, schedule: Q01DX Z (ip), vehicle: carboxymethylcellulose (CMC) 94 % of control | dose: 300.0 mg/kg/injection, schedule: Q01DX Z (ip), vehicle: carboxymethylcellulose (CMC) 95 % of control

c1ccc(-c2nc3ccccc3c3ccccc23)cc1
inactive: [1] 101 % of control | [2] 103 % of control | [3] 106 % of control

CCOC(=O)CSc1ccc2c3c(cccc13)C(=O)OC2=O
inactive: dose: 20.0 mg/kg/injection, schedule: Q01DX009 (ip), vehicle: other 104 % of control | dose: 40.0 mg/kg/injection, schedule: Q01DX009 (ip), vehicle: other 98 % of control | dose: 80.0 mg/kg/injection, schedule: Q01DX009 (ip), vehicle: other 91 % of control | dose: 87.5 mg/kg/injection, schedule: Q01DX009 (ip), vehicle: other 92 % of control

Cc1cccc(-c2nc(N)nc(N)n2)c1C
inactive: [4] 97 % of control | [5] 101 % of control | dose: 200.0 mg/kg/injection, schedule: Q01DX009 (ip), vehicle: saline with Tween-80 101 % of control

N#C/C(=C\c1cccs1)c1ccc([N+](=O)[O-])cc1
inactive: [6] 96 % of control | [7] 86 % of control | [8] 91 % of control

CCOP(=O)(Nc1ccc2c(c1)C(=O)c1ccccc1-2)OCC
inactive: [9] 97 % of control | [10] 103 % of control | [11] 100 % of control | dose: 400.0 mg/kg/injection, schedule: Q01DX001 (ip), vehicle: carboxymethylcellulose (CMC) 103 % of control

CCOc1ccc2[nH]c(C)c(CC(=O)O)c2c1
inactive: [12] 97 % of control | dose: 200.0 mg/kg/injection, schedule: Q01DX001 (ip), vehicle: saline with Tween-80 103 % of control | dose: 400.0 mg/kg/injection, schedule: Q01DX001 (ip), vehicle: saline with Tween-80 97 % of control

CC(C)(C)C1CCNC(=O)CC1 (stereo not given)
inactive: dose: 10.0 mg/kg/injection, schedule: Q01DX009 (ip), vehicle: Klucel (hydroxypropylcellulose) (HPC) 95 % of control | dose: 20.0 mg/kg/injection, schedule: Q01DX009 (ip), vehicle: Klucel (hydroxypropylcellulose) (HPC) 103 % of control | dose: 20.0 mg/kg/injection, schedule: Q04DX003 (ip), vehicle: Klucel (hydroxypropylcellulose) (HPC) 107 % of control | dose: 40.0 mg/kg/injection, schedule: Q04DX003 (ip), vehicle: Klucel (hydroxypropylcellulose) (HPC) 103 % of control | [13] 102 % of control | dose: 150.0 mg/kg/injection, schedule: Q01DX001 (ip), vehicle: carboxymethylcellulose (CMC) 102 % of control | dose: 300.0 mg/kg/injection, schedule: Q01DX001 (ip), vehicle: carboxymethylcellulose (CMC) 96 % of control

Cc1cc[n+](Cc2ccccc2Cl)cc1
inactive: [14] 97 % of control | dose: 6.25 mg/kg/injection, schedule: Q04DX003 (ip), vehicle: saline 96 % of control | [15] 97 % of control | dose: 12.5 mg/kg/injection, schedule: Q04DX003 (ip), vehicle: saline 107 % of control | [16] 100 % of control | dose: 25.0 mg/kg/injection, schedule: Q04DX003 (ip), vehicle: saline 89 % of control

CCCCC(=O)N(CC(C)C)CC(C)C
inactive: dose: 25.0 mg/kg/injection, schedule: Q04DX002 (ip), vehicle: carboxymethylcellulose (CMC) 95 % of control | [9] 95 % of control | dose: 50.0 mg/kg/injection, schedule: Q01DX009 (ip), vehicle: carboxymethylcellulose (CMC) 98 % of control and 120 % of control | dose: 50.0 mg/kg/injection, schedule: Q04DX002 (ip), vehicle: carboxymethylcellulose (CMC) 100 % of control and 102 % of control | dose: 50.0 mg/kg/injection, schedule: Q04DX003 (ip), vehicle: carboxymethylcellulose (CMC) 101 % of control | [10] 97 % of control | dose: 100.0 mg/kg/injection, schedule: Q01DX009 (ip), vehicle: carboxymethylcellulose (CMC) 95 % of control and 103 % of control | dose: 100.0 mg/kg/injection, schedule: Q04DX002 (ip), vehicle: carboxymethylcellulose (CMC) 98 % of control and 103 % of control and 105 % of control | dose: 100.0 mg/kg/injection, schedule: Q04DX003 (ip), vehicle: carboxymethylcellulose (CMC) 95 % of control | [11] 88 % of control | dose: 200.0 mg/kg/injection, schedule: Q01DX009 (ip), vehicle: carboxymethylcellulose (CMC) 103 % of control and 92 % of control | dose: 200.0 mg/kg/injection, schedule: Q04DX002 (ip), vehicle: carboxymethylcellulose (CMC) 92 % of control | dose: 200.0 mg/kg/injection, schedule: Q04DX003 (ip), vehicle: carboxymethylcellulose (CMC) 101 % of control | dose: 400.0 mg/kg/injection, schedule: Q04DX002 (ip), vehicle: carboxymethylcellulose (CMC) 102 % of control

O=[N+]([O-])c1cccc(C(O)C=C(C(F)(F)F)C(F)(F)F)c1 (stereo not given)
inactive: dose: 25.0 mg/kg/injection, schedule: Q01DX009 (ip), vehicle: saline with Tween-80 100 % of control | [4] 98 % of control | [5] 98 % of control | [17] 103 % of control

CCCCCCCCCCC(C)c1ccc(S(=O)(=O)O)cc1 (stereo not given)
inactive: dose: 100.0 mg/kg/injection, schedule: Q01DX001 (ip), vehicle: saline sonified 97 % of control | dose: 200.0 mg/kg/injection, schedule: Q01DX001 (ip), vehicle: saline sonified 107 % of control

CCCCCCCc1nc(N)c(C(N)=O)[nH]1
inactive: [18] 96 % of control | [19] 102 % of control | [12] 98 % of control | [17] 101 % of control

O=C(c1ccc(Br)cc1)C(O)O
inactive: [20] 102 % of control | [21] 121 % of control | [22] 97 % of control | [23] 101 % of control | [24] 102 % of control | [25] 106 % of control

COc1ccc(CCN2C(=O)c3cccc4c([N+](=O)[O-])ccc(c34)C2=O)cc1OC
inactive: [6] 100 % of control | [7] 94 % of control | [8] 93 % of control

C=CCNC(=O)/C=C/C(=O)NCC=C
inactive: [18] 97 % of control | [19] 97 % of control | [17] 89 % of control

CCCN(CCC)C(=O)c1ccncc1
inactive: [20] 107 % of control | [21] 101 % of control | [22] 102 % of control | [23] 102 % of control | [24] 91 % of control | [25] 114 % of control

Nc1nc(=S)[nH]c(N)c1N
inactive: dose: 125.0 mg/kg/injection, schedule: Q01DX Z (ip), vehicle: methylcellulose (MC) 93 % of control

CN(C)CCCn1c2c(c3ccccc31)CCCCCC2
inactive: [14] 96 % of control | [15] 93 % of control | [16] 98 % of control | dose: 50.0 mg/kg/injection, schedule: Q01DX009 (ip), vehicle: saline 102 % of control

COc1ccc2nc3cc(Cl)ccc3c(Nc3ccc(O)c(CNCCO)c3)c2c1
inactive: [13] 101 % of control

O=C(NCCCl)Nc1cccc2cccnc12
inactive: [6] 100 % of control | [1] 100 % of control | [7] 98 % of control | [2] 102 % of control | [8] 98 % of control | [3] 94 % of control

CC(C)N(CCC#N)C(=S)Nc1cccc(C(F)(F)F)c1
inactive: dose: 100.0 mg/kg/injection, schedule: Q01DX009 (ip), vehicle: other 102 % of control | dose: 200.0 mg/kg/injection, schedule: Q01DX009 (ip), vehicle: other 104 % of control | dose: 400.0 mg/kg/injection, schedule: Q01DX009 (ip), vehicle: other 103 % of control
